Laboratory results from article PMC4910235, “Selenophene and thiophene-core estrogen receptor ligands that inhibit motility and development of parasitic stages of Haemonchus contortus” (Parasites & Vectors, 2016).
Entries after “also recorded” stand apart in the source; their conditions may differ.

What was measured:
L4 stage of H. contortus = test: Scanning electron microscopy of treated L4s; format: cell-based, Haemonchus contortus; settings: 100 μM, 24 h
Procedure: SEM was used to assess whether compounds that reduced motility by ≥ 70 % caused structural damage to the larval stages. The xL3s and L4s were cultivated as described previously. Compounds were diluted to a final concentration of 100 μM in LB*, and 50 μl were transferred to wells of a 96-well microculture plate; six wells were used for each treatment and for the negative control which contained LB* and 1 % methanol (AR1115-P2.5 L, RCI; Labscan Limited). The xL3s and L4s were resuspended in LB* at a density of ~6,000 per ml, and 50 μl were transferred into individual wells. Compounds were incubated with the larvae for 24 h at 38 °C and 10 % CO2. Following incubation, for each treatment, the larvae from each of the six wells were pooled into 1.5 ml Eppendorf tubes, washed 3 times in 0.9 % saline at 9,000 g and resuspended in 1 ml of phosphate-buffered saline (PBS). Subsequently, the larvae were fixed in 2.5 % glutaraldehyde in PBS for 2 h at room temperature, rinsed three times in PBS for 15 min, and then post-fixed in 1 % osmium tetroxide for 2 h at room temperature. Fixed larvae were rinsed again 3 times in PBS for 15 min. Then, aliquots of concentrated larvae (200 μl) were incubated on polyethyleneimine (PEI)-coated glass coverslips (pre-prepared by smearing 22 mm square glass coverslips with a 0.1 % solution of PEI and dried by heat under a cool flame). Following this incubation, the excess supernatant was removed, and the coverslips with adhered nematodes were dehydrated in increasing concentrations of ethanol (10, 30, 50, 70, 90 and 100 %) in water for 30 min. The coverslips were dried in a critical point dryer (EM CPD030, Leica, Wetzlar, Germany) and mounted on to aluminium stubs (25 mm) with double-sided carbon tabs. The coverslips were then coated with gold using a Xenosput sputter coater (Dynavac, Australia). The larvae on the coverslips were imaged using a field-emission scanning electron microscope (XL30 Philips, Netherlands) at 2.0 kV using a spot size of two; 12 representative images were taken of each sample.

ERα = target: T1, ERα (Homo sapiens, UniProt P03372); test: 3×ERE-luciferase reporter gene assay in HEK 293 T cells, ERα; format: cell-based
T1 construct: expressed in transfected cells; host or cells: HEK 293 T
T1 sequence (P03372 1-595): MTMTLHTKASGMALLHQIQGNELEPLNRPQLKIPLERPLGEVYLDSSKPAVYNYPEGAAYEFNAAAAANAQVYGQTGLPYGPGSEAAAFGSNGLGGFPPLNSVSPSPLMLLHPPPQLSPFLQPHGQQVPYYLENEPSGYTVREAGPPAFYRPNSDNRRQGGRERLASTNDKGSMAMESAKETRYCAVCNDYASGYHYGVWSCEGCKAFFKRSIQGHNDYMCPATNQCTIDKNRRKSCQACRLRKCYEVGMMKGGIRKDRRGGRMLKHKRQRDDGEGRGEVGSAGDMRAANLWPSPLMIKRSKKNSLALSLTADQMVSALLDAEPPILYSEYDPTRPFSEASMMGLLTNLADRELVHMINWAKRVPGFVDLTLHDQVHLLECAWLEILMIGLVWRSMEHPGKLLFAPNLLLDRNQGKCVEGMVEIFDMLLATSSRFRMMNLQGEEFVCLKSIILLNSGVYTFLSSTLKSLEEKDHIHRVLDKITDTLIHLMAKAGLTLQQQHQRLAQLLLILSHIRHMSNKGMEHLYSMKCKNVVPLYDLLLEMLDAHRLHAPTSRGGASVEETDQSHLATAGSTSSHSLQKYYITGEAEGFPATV
Procedure: (§1) Cells in phenol red-free DMEM with 10 % FBS were plated. […] The next day, the cells were treated with increasing doses of ER ligands diluted in phenol red-free DMEM with 10 % FBS. After 24 h, luciferase activity was measured using the dual-luciferase reporter assay system (Promega, Fitchburg, USA) performed according to the manufacturer’s protocol.

[1] = target: T2, human ERα ligand binding domain (Homo sapiens, UniProt P03372); test: Competitive fluorometric receptor-binding assay, ERα; settings: estradiol = 100 %; fluorescence polarisation, coumestrol tracer
T2 sequence (P03372 311-547 limits assumed): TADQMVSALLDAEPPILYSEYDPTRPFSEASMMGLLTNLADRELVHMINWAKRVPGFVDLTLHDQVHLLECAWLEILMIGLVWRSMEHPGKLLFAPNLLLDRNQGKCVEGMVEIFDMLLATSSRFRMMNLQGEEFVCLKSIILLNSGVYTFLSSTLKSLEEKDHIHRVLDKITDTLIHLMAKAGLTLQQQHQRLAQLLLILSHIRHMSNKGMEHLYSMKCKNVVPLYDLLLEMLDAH
Procedure: (§2) Relative binding affinities were determined by a competitive fluorometric binding assay, as described previously. Briefly, 40 nM fluorescence tracer (coumestrol, Sigma-Aldrich) and 0.8 μM purified human ERα or ERβ ligand binding domain were diluted in 100 mM potassium phosphate buffer (pH 7.4), containing 100 μg/ml bovine γ-globulin (Sigma-Aldrich), and an equal volume of test compound was added. Incubation was for 2 h at 25 °C. The fluorescence polarisation values were measured. […] The values given are the average ± range of two independent determinations. IC50 values were calculated using a published formula [29].

[2] = target: human ERβ ligand binding domain (Homo sapiens, UniProt Q92731); test: Competitive fluorometric receptor-binding assay, ERβ; settings: estradiol = 100 %; fluorescence polarisation, coumestrol tracer
Procedure: as §2

ERβ = target: T3, ERβ (Homo sapiens, UniProt Q92731); test: 3×ERE-luciferase reporter gene assay in HEK 293 T cells, ERβ; format: cell-based
T3 construct: expressed in transfected cells; host or cells: HEK 293 T
Procedure: as §1

[3] = percentage of 10^-8 M 17β-estradiol, mean ± SD

T3 sequence (Q92731 whole entry): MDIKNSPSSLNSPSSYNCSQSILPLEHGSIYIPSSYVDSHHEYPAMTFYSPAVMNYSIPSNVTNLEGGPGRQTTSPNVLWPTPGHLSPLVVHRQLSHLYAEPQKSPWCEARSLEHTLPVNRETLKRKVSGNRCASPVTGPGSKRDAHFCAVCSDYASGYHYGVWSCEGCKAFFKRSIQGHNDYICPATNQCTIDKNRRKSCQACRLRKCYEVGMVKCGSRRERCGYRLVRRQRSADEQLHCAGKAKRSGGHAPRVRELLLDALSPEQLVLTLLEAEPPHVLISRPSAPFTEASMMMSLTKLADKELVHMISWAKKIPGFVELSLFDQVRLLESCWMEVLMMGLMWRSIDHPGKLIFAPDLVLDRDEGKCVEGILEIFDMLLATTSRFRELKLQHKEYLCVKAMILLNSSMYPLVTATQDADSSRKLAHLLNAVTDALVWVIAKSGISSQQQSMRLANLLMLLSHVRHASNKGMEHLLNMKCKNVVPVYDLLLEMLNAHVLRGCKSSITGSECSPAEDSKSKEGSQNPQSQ
Sequence of human ERβ ligand binding domain (Q92731 264-498 limits assumed): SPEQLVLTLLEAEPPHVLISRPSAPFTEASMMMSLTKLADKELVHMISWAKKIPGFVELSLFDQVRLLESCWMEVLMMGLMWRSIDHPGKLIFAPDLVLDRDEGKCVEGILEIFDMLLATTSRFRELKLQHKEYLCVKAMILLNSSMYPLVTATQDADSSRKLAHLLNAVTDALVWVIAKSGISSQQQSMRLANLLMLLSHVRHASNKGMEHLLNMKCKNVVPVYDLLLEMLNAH

Structure (SMILES): Oc1ccc(-c2cscc2-c2ccc(O)cc2Cl)c(Cl)c1 [MJ-17]
- cuticle damage of L4s by SEM (L4 stage of H. contortus): distinct damage

Structure (SMILES): Cc1cc(O)ccc1-c1ccc(-c2ccc(O)cc2F)s1 [MJ-22]
- cuticle damage of L4s by SEM (L4 stage of H. contortus): distinct damage
- profile on ERα (agonist/antagonist) (ERα; luciferase reporter): super-agonist; also recorded: agonists

Structure (SMILES): C[C@](C#N)(COc1cc(C#N)ccc1C(F)(F)F)NC(=O)c1ccc(SC(F)(F)F)cc1 [Monepantel, reference compound]
- cuticle damage of L4s by SEM (L4 stage of H. contortus): cuticle damage

Structure (SMILES): CO/N=C1\C[C@]2(C[C@@H]3C[C@@H](C/C=C(\C)C[C@@H](C)/C=C/C=C4\CO[C@@H]5[C@H](O)C(C)=C[C@@H](C(=O)O3)[C@]45O)O2)O[C@H](/C(C)=C/C(C)C)[C@H]1C [Moxidectin, reference compound]
- cuticle damage of L4s by SEM (L4 stage of H. contortus): did not induce any cuticle damage

Structure (SMILES): Oc1ccc(-c2ccc(-c3ccc(O)cc3Cl)[se]2)c(Cl)c1 [WZY-2]
- cuticle damage of L4s by SEM (L4 stage of H. contortus): distinct damage
- relative binding affinity (RBA) ERα [1]: 6.11%
- relative binding affinity (RBA) ERβ [2]: 12.7%
- IC50 (ERα; against 10^-8 M E2, read-out: Antagonist mode ERα IC50): > 10 µM
- EC50 (ERα; doses up to 10^-5 M, read-out: Agonist mode ERα EC50): > 10 µM
- Agonist mode ERα Efficacy (%E2) (ERα; [3]): -21 ± 13 %E2
- Antagonist mode ERα Efficacy (%E2) (ERα; [3]): 73 ± 8 %E2
- IC50 (ERβ; against 10^-8 M E2, read-out: Antagonist mode ERβ IC50): 3.02 µM
- EC50 (ERβ; doses up to 10^-5 M, read-out: Agonist mode ERβ EC50): > 10 µM
- profile on ERβ (agonist/antagonist) (ERβ; luciferase reporter): antagonist
- Antagonist mode ERβ Eff (%E2) (ERβ; [3]): 13.9 ± 5.3 %E2
